ChEMBL document CHEMBL5137136, “A Cytotoxic Heterodimeric Cyclic Diarylheptanoid with a Rearranged Benzene Ring from the Seagrass Zostera marina” (J Nat Prod, 2022)
Active and inactive are the calls of the source. The calls are words filed in the database; no cut-off is given here.

Columns and labels:
[1] = tested on: HCT-116; experiment: Cytotoxicity against human HCT-116 cells assessed as reduction in cell viability at 10 uM incubated for 48 hrs by MTT assay relative to control; assay type: functional
[2] = tested on: HCT-116; experiment: Cytotoxicity against human HCT-116 cells assessed as reduction in cell viability incubated for 48 hrs by MTT assay; assay type: functional, cell-based; conditions: HCT-116, 48 h
[3] = tested on: HCT-116; experiment: Induction of morphological changes in human HCT-116 cells at 10 uM incubated for 48 hrs by phase contrast microscopy analysis; assay type: functional, cell-based
[4] = tested on: HCT-116; experiment: Cytotoxicity against human HCT-116 cells assessed as cell growth inhibition at 10 uM incubated for 48 hrs by MTT assay relative to control; assay type: functional

| Compound | Activity [1] [%] | IC50 [2] [µM] | Activity [3] | inhibition at 10 µM [4] [%] |
| --- | --- | --- | --- | --- |
| COc1cc(O)c2cc1CC/C=C\C=C\CC1=C(O)C(=O)C=C(O2)[C@H]1C1=Cc2cc(OC)c(O)c3c2[C@@H]1/C=C\CCc1ccc(O)c-3c1 | 97 | 3.6 |  |  |
| COc1cc2c3c(c1O)-c1cc(ccc1O)CC/C=C\[C@@H]3C([C@@H]1C3=CC(=O)[C@]14C(=O)Oc1ccc(cc14)CC/C=C\C=C\C3)=C2 |  | 7.6 | Active | 73 |
| COc1cc2c3c(c1O)-c1cc(ccc1O)CC/C=C\[C@@H]3C([C@@H]1C3=CC(=O)[C@@]4(O)Oc5ccc(cc5[C@@H]14)CC/C=C\C=C\C3)=C2 |  |  |  | 23 |
